Data taken from article PMC5538713, “RORγt and RORα signature genes in human Th17 cells” (PLoS ONE, 2017).
Where two headings read alike, the source gives them in different places.

Columns and labels:
RORβ LBD = biological target: T1, RORβ LBD (Homo sapiens, UniProt Q92753); experiment: ThermoFluor binding assay, RORβ LBD
T1 construct: made in house; host or cells: E. coli BL21DE3 GOLD, pET24a
T1 sequence (Q92753 201-452 isoform Q92753-1): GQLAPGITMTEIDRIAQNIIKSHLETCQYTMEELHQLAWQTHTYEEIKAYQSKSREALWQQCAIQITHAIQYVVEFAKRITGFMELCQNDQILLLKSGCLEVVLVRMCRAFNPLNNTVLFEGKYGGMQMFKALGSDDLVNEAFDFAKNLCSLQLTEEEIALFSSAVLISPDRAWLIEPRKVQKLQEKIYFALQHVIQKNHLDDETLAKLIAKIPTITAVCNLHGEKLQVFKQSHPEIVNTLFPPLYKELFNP
Method: (§1) Recombinant human RORγ, RORα and RORβ LBD proteins were prepared for ThermoFlour binding assay. The nucleotide sequences encoding the ligand binding domains (LBD) of human RORγ (Genbank accession no. NP005051, amino acid 237–497), RORα (Genbank accession no. NP599022, amino acid 304–556), and RORβ (Genbank accession no. NP008845, amino acid 201–452) were PCR-amplified and cloned into pET24a (Novagen) for expression in bacteria. All recombinant proteins contained an additional amino acid sequence of […] at the N-terminal of LBD. After transformation of the bacteria strain BL21DE3 GOLD (Agilent) with the plasmids, 10 to 20 L cultures were grown to 1 OD and recombinant protein expression was induced overnight at 16°C with 0.2mM isopropyl-beta-D-thiogalactopyranoside (IPTG) (Corning). […]. His-tagged proteins were collected with Ni-NTA resin (Qiagen) and purified with a HiTrap Q HP column (GE Life Sciences) eluted with a 40 CV gradient of 50-500mM NaCl.
(§2) The ThermoFluor® assay was established to measure the change in protein stability upon binding with compounds. 1-Anilinonaphthalene-8-Sulfonic Acid (1,8-ANS) (Invitrogen) was used as a fluorescent dye to label the test proteins. The assay was performed in polypropylene PCR microplates (TF-0384/k, Abgene) with a final assay of 3 μL reaction mixture per well overlaid with 1 μL silicone oil (Sigma-Aldrich). Assay plates were robotically loaded onto a thermostatically controlled PCR-type thermal block and then heated at a ramp-rate of 1°C/min. Fluorescence emission was initiated by continuous illumination with UV light (LC6, Hamamatsu) via fiber optic with a band-pass filter (380–400 nm) and detected with a CCD camera (Sensys, Roper Scientific) filtered to detect signal of 500 ± 25 nm. Reference wells contained recombinant LBD of RORγt, RORα or RORβ alone, and the assay conditions were as follows: 0.065 mg/mL RORγt LBD, 60 μM 1,8-ANS, 100 mM HEPES pH 7.0, 10 mM NaCl, 2.5 mM GSH, 0.002% Tween- 20; 0.1 mg/mL RORα, 70 μM 1,8-ANS, 25 mM HEPES pH 7.0, 50 mM NaCl, 0.001% Tween-20; 0.08 mg/mL RORβ, 60 μM 1,8-ANS, 50 mM HEPES pH 7.0, 100 mM NaCl, 0.001% Tween-20. All 3 assays were performed in the absence and in the presence of 100 μM co-activator peptide SRC1 ([…], England Peptide custom synthesis). The binding affinity of test compounds was estimated as described previously.

GABA = experiment: Cerep selectivity panel; assay type: binding
ML1 = experiment: Cerep selectivity panel; assay type: binding
OP2 = experiment: Cerep selectivity panel; assay type: binding
[1] = tested on: human CD4 T cells, IFNγ production; experiment: Th1 differentiation assay (IFNγ production); assay type: cell-based; conditions: 72 h
[2] = tested on: human CD4 T cells under Th17 conditions; experiment: cells; conditions: read-out: Th17 Proliferation (IC50, nM)
RORα LBD = biological target: T2, RORα LBD (Homo sapiens, UniProt P35398); experiment: ThermoFluor binding assay, RORα LBD
T2 construct: made in house; host or cells: E. coli BL21DE3 GOLD, pET24a
T2 sequence (P35398 304-556 isoform P35398-1): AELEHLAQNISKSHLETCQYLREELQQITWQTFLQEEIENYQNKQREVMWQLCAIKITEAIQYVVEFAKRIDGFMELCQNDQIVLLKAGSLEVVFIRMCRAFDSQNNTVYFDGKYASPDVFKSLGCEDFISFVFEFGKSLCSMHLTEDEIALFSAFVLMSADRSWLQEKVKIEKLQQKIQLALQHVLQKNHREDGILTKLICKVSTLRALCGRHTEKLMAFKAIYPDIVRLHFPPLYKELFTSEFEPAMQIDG
Method: as §1, §2

M3 (h) = biological target: T3, M3 (h) (Homo sapiens, UniProt P20309); experiment: Cerep selectivity panel; assay type: binding; conditions: for inhibition at 1 µM: read-out: % Inhibition at 1µM; for inhibition at 10 µM: read-out: % Inhibition at 10µM
T3 construct: purchased Cerep
Method: (§3) Supplementary file pone.0181868.s003.docx: S3 Table Selectivity profile of RORγt inverse agonists A, B, C and D. Compounds were evaluated at 1 μM and 10 μM in a panel of assays against 50 receptors, ion channels and transporters (Profile service by Cerep Inc.). (DOCX) Click here for additional data file.
(§4) S3 Table. RORɣt inverse agonists A, B, C and D were evaluated at 1 µM and 10 µM in a panel of assays against 50 receptors, ion channels and transporters (Profile service by Cerep Inc.).

CI Channel = experiment: Cerep selectivity panel; assay type: binding
DA-T = biological target: T4, DA-T (Homo sapiens, UniProt Q01959); experiment: Cerep selectivity panel; assay type: binding; conditions: for inhibition at 1 µM: read-out: % Inhibition at 1µM; for inhibition at 10 µM: read-out: % Inhibition at 10µM
T4 construct: purchased Cerep
Method: as §3, §4

[3] = Homo sapiens, CD4+ T, read-out: Th1 Differentiation (IFNγ production) (IC50, nM)
[4] = recombinant human LBD, read-out: ThermoFlour Binding Assay (Kd, nM) RORβ
[5] = recombinant human LBD, read-out: ThermoFlour Binding Assay (Kd, nM) RORα

T4 sequence (Q01959 whole entry): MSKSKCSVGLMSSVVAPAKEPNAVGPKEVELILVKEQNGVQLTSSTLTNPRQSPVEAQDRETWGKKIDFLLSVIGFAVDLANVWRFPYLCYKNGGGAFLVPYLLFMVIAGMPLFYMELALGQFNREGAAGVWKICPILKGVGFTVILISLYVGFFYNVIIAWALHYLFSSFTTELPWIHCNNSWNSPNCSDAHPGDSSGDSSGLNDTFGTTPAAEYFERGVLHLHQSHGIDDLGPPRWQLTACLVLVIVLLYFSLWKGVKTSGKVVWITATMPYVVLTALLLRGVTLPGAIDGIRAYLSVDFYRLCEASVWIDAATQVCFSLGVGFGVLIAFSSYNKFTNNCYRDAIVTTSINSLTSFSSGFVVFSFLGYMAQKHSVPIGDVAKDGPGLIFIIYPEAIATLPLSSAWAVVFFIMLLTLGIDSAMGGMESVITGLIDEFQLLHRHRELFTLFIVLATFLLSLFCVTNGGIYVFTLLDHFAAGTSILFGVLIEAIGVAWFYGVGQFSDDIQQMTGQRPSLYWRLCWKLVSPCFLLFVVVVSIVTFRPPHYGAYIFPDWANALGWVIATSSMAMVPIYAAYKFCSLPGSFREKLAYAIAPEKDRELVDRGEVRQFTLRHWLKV
T3 sequence (P20309 whole entry): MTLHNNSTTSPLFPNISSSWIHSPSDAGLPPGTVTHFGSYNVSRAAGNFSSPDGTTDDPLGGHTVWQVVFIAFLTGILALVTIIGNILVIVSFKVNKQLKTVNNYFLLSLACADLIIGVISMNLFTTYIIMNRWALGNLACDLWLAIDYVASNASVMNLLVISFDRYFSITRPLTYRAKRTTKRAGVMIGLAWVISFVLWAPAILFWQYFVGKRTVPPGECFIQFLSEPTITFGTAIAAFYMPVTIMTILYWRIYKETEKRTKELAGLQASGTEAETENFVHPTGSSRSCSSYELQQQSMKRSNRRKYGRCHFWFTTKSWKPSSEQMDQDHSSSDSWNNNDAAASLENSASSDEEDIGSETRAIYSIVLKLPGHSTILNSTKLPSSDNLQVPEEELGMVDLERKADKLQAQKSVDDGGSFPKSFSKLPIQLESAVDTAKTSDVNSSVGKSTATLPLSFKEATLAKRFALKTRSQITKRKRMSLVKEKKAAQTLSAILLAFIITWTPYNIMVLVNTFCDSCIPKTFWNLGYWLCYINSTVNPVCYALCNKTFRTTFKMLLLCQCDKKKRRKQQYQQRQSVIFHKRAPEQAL

SMILES | Kd (RORβ LBD) [nM] | % Inhibition at 1µM (GABA) [%] | % Inhibition at 1µM (ML1) [%] | % Inhibition at 10µM (ML1) [%] | % Inhibition at 10µM (OP2) [%] | IC50 [1, 3] [nM] | IC50 [2] [nM] | Kd (RORα LBD) [nM] | inhibition at 1 µM (M3 (h)) [%] | inhibition at 10 µM (M3 (h)) [%] | % Inhibition at 1µM (CI Channel) [%] | % Inhibition at 10µM (CI Channel) [%] | Kd (RORβ LBD; [4]) [nM] | Kd (RORα LBD; [5]) [nM] | inhibition at 1 µM (DA-T) [%] | inhibition at 10 µM (DA-T) [%] | further results
COc1nc2ccc([C@](O)(c3ccc(Cl)cc3)c3cncn3C)cc2c(Cl)c1Cc1ccc(-n2cccn2)cc1 [B] | > 29900 | 9 | 13 | 38 | 10 | > 240 | > 240 | > 19600 | 1 | 15 | 24 | 66 |  |  |  |  | 
COc1nc2ccc([C@@](O)(c3ccccc3)C3CCN(C(C)=O)CC3)cc2c(Cl)c1Cc1ccc(-n2cccn2)cc1 [C] |  |  | 4 | 27 | 12 | > 240 | > 240 |  | 21 | 19 | 16 | 45 | > 70000 | > 70000 | 17 | 25 | % Inhibition at 10µM (GABA; 10 µM): 12%
COc1nc2ccc([C@@](O)(c3ccc(C)nc3C)c3cnnn3C)cc2c(Cl)c1Cc1ccc(C(F)(F)F)cc1 [compound A] |  | 8 |  | 39 | 37 |  | > 240 |  |  |  | 26 | 87 | 4940 | 166 |  |  | % Inhibition at 1µM (OP2; 1 µM): 9%; IC50 ([1]; human CD4 T cells, 3 days, read-out: Th1 Differentiation (IFNγ production) (IC50)): > 240 nM; inhibition at 10 µM (M3 (h); M3 (h), 10 µM): 63%; inhibition at 1 µM (DA-T; DA-T, 1 µM): 38%; inhibition at 10 µM (DA-T; DA-T, 10 µM): 81%
CN(C)c1nc2ccc(C(O)(c3ccncc3)c3cncn3C)cc2c(Cl)c1-c1ccccc1 (stereo not shown) [compound D] | 1240 |  |  |  |  | > 240 |  | 192 | 33 | 70 |  |  |  |  | 23 | 87 | 
